Laboratory results published in patent US6352993B1, “Pyrimidine derivatives and processes for the preparation thereof” (Yuhan Corporation, priority 1997, dated 2002).
Counter-ions that a name gives are not always drawn.

How the values were obtained:
[1] = biological target: proton pump (H+/K+-ATPase) (UniProt P19156); assay: Inhibition of proton pump (H+/K+-ATPase activity); assay type: biochemical; parameters: Effect ratio; details: relative to omeprazole IC50
Method: (§1) Test 1: Inhibition of proton pump (H^+/K^+-ATPase activity)
(§2) A proton pump enzyme was prepared by the same method as in the Experiment 1-1 of WO 94/14795. Further, the inhibitory effect of proton pump activity was measured by the same method as in Experiment 1-2 of WO 94/14795.
(§3) Namely, the proton pump activity stimulated by Mg^++ was used as a negative comparative group, and the activity stimulated by Mg^++ and K^+ was used as a positive comparative group. The comparative compound was omeprazole.
(§4) Test tubes were divided into 4 groups: Group 1 as negative comparative group(n=3), Group 2 as positive comparative group(n=3), Group 3(n=5×2) to be administered with the compound of the present invention and Group 4(n=5×2) to be administered with the comparative compound.
(§5) The inhibitory effects of Groups 3 and 4 on proton pump activity were measured by employing the compound prepared in Examples and omeprazole, respectively, each of which was dissolved in dimethylsulfoxide at 5 different concentrations.
(§6) To each of Groups 1, 2, 3 and 4 were added 100 μl of magnesium chloride(40 mM) dissolved in 40 mM Tris-HCI buffer(ph 6.0) and 100 μg of the enzyme source. The 50 μl of potassium chloride(50 mM) and 50 μl of ammonium chloride(6 mM) dissolved in 40 mM Tris-HCl buffer(pH 6.0) were added to all groups except for group 1.
(§7) 10 μl of dimethylsulfoxide was added to each of Groups 1 and 2; and to Group 3 was added 10 μl of dimethylsulfoxide solution prepared by dissolving compound of EXAMPLE at 5 different concentration(n=5×2). To Group 4, 10 μl of the solution prepared by dissolving omeprazole in dimethylsulfoxide at 5 different concentration(37.6, 21.4, 12.2, 7.0 and 4.0 μM) was added(n=5×2). 40 mM Tris-HCI buffer(pH=6.0) was added thereto so as to make the total volume 400 μl.
(§8) Thereafter, the test tube of each Group were placed at 37° C. for 30 minutes for the preincubation. 100 μl ATP solution (6.6 mM) was added until the reaction volume became 500 μl. After the reaction was carried out at 37° C. for 30 minutes, 25% cold trichloroacetic acid was added to terminate the enzyme reaction. The released inorganic phosphate was measured by an automatic analyzer(Express 550, coming).
(§9) The difference between Group 1 and Group 2 represents the proton pump activity activated by K^+ only. The IC50s of Group 3 and 4 were calculated from Litchfield-wilcoxon equation[see, e.g., J. Pharrnacol. Exp. Ther., 96, 99(1949)]. The concentrations of the test compounds inhibiting 50% of the proton pump activity are represented as IC50 in Table 1.

[2] = tested on: gastric secretion in pylorus-ligated Sprague-Dawly rats; assay: Inhibition of gastric secretion (pylorus-ligated rats, Shay method); assay type: in vivo; details: 20 mg/kg intraduodenally, 5 hours; for Relative conc.: gastric juice acidity relative to omeprazole, equation (II); for Relative volume: gastric juice amount relative to omeprazole, equation (I); for Relative Acid Output: total acid output relative to omeprazole, equation (III)
Method: Test 2: Inhibition of gastric secretion
In accordance with the method disclosed in Shay, H., et al., Gastroenterology 5 43-61(1945), Test 2 was carried out.
Sprague-Dawly rats having a body weight of 170±10 g were divided into 3 groups(n=5) and deprived of food for 24 hours before the experiment with free access to water. Under ether anesthesia, the abdomen was incised, and the pylorus was ligated. As a comparative group, Group 1 was administered intraduodenally in a volume of 0.5 ml/200 g of 30% aqueous polyethylene glycol 400 solution. Groups 2 and 3 were administered intraduodenally with the compound of Example and omeprazole, respectively, each of which was suspended in 30% aqueous polyethylene glycol 400 solution at a concentration of 20 mg/kg. After closing the abdominal cavity, the rats were placed for 5 hours and then killed by cervical dislocation. The stomach was extracted to obtain gastric juice.
Tne gastric juice was centrifuged at 1,000 g to remove precipitates. The amount and acidity of the gastric juice were measured. Relative volumes, relative acid concentrations and relative acid outputs of the test compounds were calculated from equations(I), (II) and (III) and the results are shown in Table 2.
Relative volume=(the average amount of gastric juice of Group 1—the average amount of gastric juice of Group 2)/(the average amount of gastric juice of Group 1−the average amount of gastric juice of Group 3)—(I)
Relative acid concerntration=(the average acidity of Group 1—the average acidity of Group 2)/(the average acidity of Group 1—the average acidity of Group 3)—(II)
Relative acid output (the total amount of acid output of Group 1—the total amount of acid output of Group 2)/(the total amount of acid output of Group 1—the total amount of acid output of Group 3)—(m)

[3] = biological target: proton pump (H+/K+-ATPase) (UniProt P19156); assay: Inhibition of proton pump (H+/K+-ATPase activity); assay type: biochemical; parameters: other: K+-stimulated proton pump activity, pH 6.0, 37°; details: K+-stimulated proton pump activity, pH 6.0, 37° C., 30 minutes preincubation; read-out: IC50 (concentration inhibiting 50% of the proton pump activity)
Method: as §1, §2, §3, §4, §5, §6, §7, §8, §9

Effect ratio [1] | IC50 [3] [µM] | SMILES | Relative conc. [2] | Relative volume [2] | Relative Acid Output [2]
1.4 | 7.85 | C=CCNc1nc(C)c(C)c(N2CCc3ccccc3C2)n1 [Example 2, 5,6-dimethyl-2-(3-allylamino)-4-(1,2,3,4-tetrahydroisoquinolin-2-yl)pyrimidine hydrochloride] | 0.57 | 0.69 | 0.70
1.6 | 6.91 | COCCNc1nc(C)c(C)c(N2CCc3ccccc3C2)n1.Cl [Example 5, 5,6-dimethyl-2-(2-methoxyethylamino)-4-(1,2,3,4-tetrahydroisoquinolin-2-yl)pyrimidine hydrochloride] | 0.18 | 0.45 | 0.43
5.2 | 2.15 | Cc1nc(NCC(C)C)nc(N2CCc3ccccc3C2C)c1C (stereo not shown) [Example 14, 5,6-dimethyl-2-isobutylamino-4-(1-methyl-1,2,3,4-tetrahydroisoquinolin-2-yl)pyrimidine] | 0.41 | 0.93 | 0.79
1.7 | 6.69 | Cc1csc(Nc2nc(C)c(C)c(N3CCc4ccccc4C3C)n2)n1.Cl (stereo not shown) [Example 22, 5,6-dimethyl-2-(4-methylthiazol-2-yl)amino-4-(1-methyl-1,2,3,4-tetrahydroisoquinolin-2-yl)pyrimidine hydrochloride] | 0.46 | 0.59 | 0.62
25.8 | 0.43 | Cc1csc(Nc2nc(C)c(C)c(N3CCc4ccccc4C3)n2)n1.Cl [Example 23, 5,6-dimethyl-2-(4-methylthiazol-2-yl)amino-4-(1,2,3,4-tetrahydroisoquinolin-2-yl)pyrimidine hydrochloride] | 1.34 | 1.58 | 1.23
61.7 | 0.18 | Cc1nc(Nc2ccc(F)cc2)nc(N2CCc3c(O)ccc(O)c3C2C)c1C.Cl (stereo not shown) [Example 43, 5,6-dimethyl-2-(4-fluorophenylamino)-4-(5,8-dihydroxy-1-methyl-1,2,3,4-tetrahydroisoquinolin-2-yl)pyrimidine hydrochloride] |  |  | 
 |  | CC(=O)OCc1nc(Nc2ccc(F)cc2)nc(N2CCc3ccccc3C2C)c1C (stereo not shown) [Example 50, 5-methyl-6-acetoxymethyl-2-(4-fluorophenylamino)-4-(1-methyl-1,2,3,4-tetrahydroisoquinolin-2-yl)pyrimidine] | 0.77 | 1.01 | 0.98
 |  | CCC(=O)OCc1nc(Nc2ccc(F)cc2)nc(N2CCc3ccccc3C2C)c1C (stereo not shown) [Example 51, 5-methyl-6-ethylcarbonyloxymethyl-2-(4-fluorophenylamino)-4-(1-methyl-1,2,3,4-tetrahydroisoquinolin-2-yl)pyrimidine] | 1.02 | 1.09 | 1.06
 |  | Cc1c(COC(=O)C(C)C)nc(Nc2ccc(F)cc2)nc1N1CCc2ccccc2C1C (stereo not shown) [Example 52, 5-methyl-6-isopropylcarbonyloxymethyl-2-(4-fluorophenylamino)-4-(1-methyl-1,2,3,4-tetrahydroisoquinolin-2-yl)pyrimidine] | 0.88 | 0.86 | 0.96
 |  | Cc1c(COC(=O)C2CC2)nc(Nc2ccc(F)cc2)nc1N1CCc2ccccc2C1C (stereo not shown) [Example 54, 5-methyl-6-cyclopropylcarbonyloxymethyl-2-(4-fluorophenylamino)-4-(1-methyl-1,2,3,4-tetrahydroisoquinolin-2-yl)pyrimidine] | 0.79 | 0.79 | 0.95
 |  | Cc1nc(Nc2ccc(F)cc2)nc(N2CCc3cc(OC(=O)c4ccc([N+](=O)[O-])cc4)ccc3C2C)c1C (stereo not shown) [Example 107, 5,6-diinethyl-2-(4-fluorophenylamino)-4-{1-methyl-6-(4-nitrobenzoyloxy)-1,2,3,4-tetrahydroisoquinolin-2-yl}pyrimidine] | 0.56 | 0.62 | 0.73
 |  | Cc1c(COC(=O)CNC(=O)OC(C)(C)C)nc(Nc2ccc(F)cc2)nc1N1CCc2ccccc2C1C (stereo not shown) [Example 139, 5-methyl-6-(N-t-butoxycarbonyl-glycyloxymetyl)-2-(4-fluorophenylamino)-4-(1-methyl-1,2,3,4-tetrahydroisoquinolin-2-yl)pyrimidine] | 0.75 | 1.01 | 1.01
 |  | Cc1c(COC(=O)C(Cc2cn(Cc3ccccc3)cn2)NC(=O)OC(C)(C)C)nc(Nc2ccc(F)cc2)nc1N1CCc2ccccc2C1C (stereo not shown) [Example 144, 5-methyl-6-(N-t-butoxycarbonyl-Im-benzyl-histidyloxymethyl)-2-(4-fluorophenylamino)-4-(1-methyl-1,2,3,4-tetrahydroisoquinolin-2-yl)pyrimidine] | 0.80 | 0.90 | 0.94
 |  | Cc1c(COC(=O)[C@@H](N)C(C)C)nc(Nc2ccc(F)cc2)nc1N1CCc2ccccc2C1C.Cl.Cl (stereo partly shown) [Example 171, 5-methyl-6-valyloxymethyl-2-(4-fluorophenylamino)-4-(1-methyl-1,2,3,4-tetrahydroisoquinolin-2-yl)pyrimidine dibydrochloride] | 1.42 | 1.46 | 1.33
 |  | Cc1c(COC(=O)[C@@H](N)Cc2ccccc2)nc(Nc2ccc(F)cc2)nc1N1CCc2ccccc2C1C.Cl.Cl (stereo partly shown) [Example 172, 5-methyl-6-(phenylalanyloxymethyl)-2-(4-fluorophenylamino)-4-(1-methyl-1,2,3,4-tetrahydroisoquinolin-2-yl)pyrimidine dihydrochloride] | 1.33 | 1.48 | 1.34
 |  | Cc1c(COC(=O)CN2CCOCC2)nc(Nc2ccc(F)cc2)nc1N1CCc2ccccc2C1C.Cl.Cl (stereo not shown) [Example 175, 5-methyl-6-(4-morpholineacetoxymethyl)-2-(4-fluorophenylamino)-4-(t1-methyl-1,2,3,4tetrahydroisoquinolin-2-yl)pyrimidine dihydrochloride] | 0.30 | 0.87 | 0.79
 |  | Cc1c(COC(=O)CN2CCCCC2)nc(Nc2ccc(F)cc2)nc1N1CCc2ccccc2C1C.Cl.Cl (stereo not shown) [Example 181, 5-rethyl-6-(1-piperidineacetoxymethyl)-2-(4-fluorophenylamino)-4-(1-methyl-1,2,3,4-tetrahydroisoquinolin-2-yl)pyrimidine dihydrochloride] | 0.16 | 0.99 | 0.80
 | 11.1 | COc1ccc2[nH]c([S+]([O-])Cc3ncc(C)c(OC)c3C)nc2c1 (stereo not shown) [Omeprazole, omeprazole, reference compound] |  |  | 
